Source: ChEMBL document CHEMBL4680330, “Soloxolone methyl, as a 18βH-glycyrrhetinic acid derivate, may result in endoplasmic reticulum stress to induce apoptosis in breast cancer cells” (Bioorg Med Chem, 2021)
pIC50: −log10 of the molar value. Activity calls are given as the source filed them. No cut-off for these calls is given here.

Columns and labels:
MCF7 [1] = experiment: Cytotoxicity against human MCF7 cells assessed as reduction in cell viability incubated for 48 hrs by ATP based luminometry; format: functional; details: MCF7, 48 h
MDA-MB-231 [2] = experiment: Cytotoxicity against human MDA-MB-231 cells assessed as reduction in cell viability incubated for 48 hrs by ATP based luminometry; format: functional; details: MDA-MB-231, 48 h
[3] = system: Epidermoid carcinoma cell line; experiment: Cytotoxicity against human Epidermoid carcinoma cell line; format: functional, cell-based
MCF7 [4] = experiment: Induction of early apoptosis in human MCF7 cells assessed as increase in pycnotic nuclei at 10 uM incubated for 24 hrs by Hoechst 33342 and PI staining based fluorescence microscopic analysis; format: functional, cell-based
MCF7 [5] = experiment: Induction of early apoptosis in human MCF7 cells assessed as increase in PI negativity at 10 uM incubated for 24 hrs by Hoechst 33342 and PI staining based fluorescence microscopic analysis; format: functional, cell-based
MCF7 [6] = experiment: Induction of late apoptosis in human MCF7 cells assessed as increase in rate of formation of pycnotic nuclei at 10 uM by Hoechst 33342 and PI staining based fluorescence microscopic analysis; format: functional, cell-based; details: TDE = time-dependent effect
MCF7 [7] = experiment: Induction of late apoptosis in human MCF7 cells assessed as increase in PI […] at 10 uM by Hoechst 33342 and PI staining based fluorescence microscopic analysis; format: functional, cell-based; details: TDE = time-dependent effect
MDA-MB-231 [8] = experiment: Induction of early apoptosis in human MDA-MB-231 cells assessed as increase in PI negativity at 10 uM incubated for 24 hrs by Hoechst 33342 and PI staining based fluorescence microscopic analysis; format: functional, cell-based
MCF7 [9] = experiment: Induction of apoptosis in human MCF7 cells assessed as cytokeratin 18 by measuring increase in M-30 level at 10 uM incubated for 24 hrs by ELISA; format: functional, cell-based
MCF7 [10] = experiment: Induction of apoptosis in human MCF7 cells assessed as cytokeratin 18 by measuring increase in M-30 level at 10 uM incubated for 48 hrs by ELISA; format: functional, cell-based
MCF7 [11] = experiment: Induction of apoptosis in human MCF7 cells assessed as early apoptotic cells at 10 uM incubated for 24 hrs by annexin V-FITC and PI staining based flow cytometry analysis (reference value: 0.20 %); format: functional
MCF7 [12] = experiment: Induction of apoptosis in human MCF7 cells assessed as necrotic cells at 10 uM incubated for 24 hrs by annexin V-FITC and PI staining based flow cytometry analysis (reference value: 15.60 %); format: functional
MDA-MB-231 [13] = experiment: Induction of apoptosis in human MDA-MB-231 cells assessed as early apoptotic cells at 10 uM incubated for 24 hrs by annexin V-FITC and PI staining based flow cytometry analysis (reference value: 0.70 %); format: functional
MDA-MB-231 [14] = experiment: Induction of apoptosis in human MDA-MB-231 cells assessed as late apoptotic cells at 10 uM incubated for 24 hrs by annexin V-FITC and PI staining based flow cytometry analysis (reference value: 3.95 %); format: functional
MDA-MB-231 [15] = experiment: Induction of apoptosis in human MDA-MB-231 cells assessed as necrotic cells at 10 uM incubated for 24 hrs by annexin V-FITC and PI staining based flow cytometry analysis (reference value: 0.95 %); format: functional
MCF7 [16] = experiment: Induction of apoptosis in human MCF7 cells at 10 uM by annexin V-FITC and PI staining based flow cytometry analysis; format: functional, cell-based; details: TDE = time-dependent effect
[17] = Induction of caspase 3/7 activity in human MCF7 cells assessed as induction of apoptosis by measuring viable cells at 10 uM incubated for 24 hrs by flow cytometry analysis (reference value: 73.10 %); format: functional
[18] = Induction of caspase 3/7 activity in human MCF7 cells assessed as induction of apoptosis by measuring late apoptotic cells at 10 uM incubated for 24 hrs by flow cytometry analysis (reference value: 22.90 %); format: functional
[19] = Induction of caspase 3/7 activity in human MDA-MB-231 cells assessed as induction of apoptosis by measuring necrotic cells at 10 uM incubated for 24 hrs by flow cytometry analysis (reference value: 0.85 %); format: functional
MCF7 [20] = experiment: Induction of ROS production in human MCF7 cells at 10 uM incubated for 24 hrs by flow cytometry analysis; format: functional, cell-based
MCF7 [21] = experiment: Induction of cell death in human MCF7 cells assessed as upregulation of HRK gene at 10 uM incubated for 24 hrs by RT-PCR analysis; format: functional, cell-based
MDA-MB-231 [22] = experiment: Induction of cell death in human MDA-MB-231 cells assessed as upregulation of BECN1 gene at 10 uM incubated for 48 hrs by RT-PCR analysis; format: functional, cell-based
MDA-MB-231 [23] = experiment: Induction of cell death in human MDA-MB-231 cells assessed as upregulation of HRK gene at 10 uM incubated for 48 hrs by RT-PCR analysis; format: functional, cell-based
MCF7 [24] = experiment: Induction of cell death in human MCF7 cells assessed as downregulation of MLKL gene at 10 uM incubated for 48 hrs by RT-PCR analysis; format: functional, cell-based
MCF7 [25] = experiment: Induction of cell death in human MCF7 cells assessed as upregulation of BECN1 gene at 10 uM measured after 48 hrs by RT-PCR analysis; format: functional, cell-based
MDA-MB-231 [26] = experiment: Induction of apoptosis in human MDA-MB-231 cells assessed as cleaved PARP level at 10 uM incubated for 24 hrs by Western blot analysis (reference value: 1); format: functional
MCF7 [27] = experiment: Induction of apoptosis in human MCF7 cells assessed as pro-caspase 8 level at 10 uM incubated for 24 hrs by Western blot analysis (reference value: 1); format: functional
MCF7 [28] = experiment: Induction of apoptosis in human MCF7 cells assessed as cleaved pro-caspase 8 level at 10 uM incubated for 24 hrs by Western blot analysis (reference value: 1); format: functional
MCF7 [29] = experiment: Induction of apoptosis in human MCF7 cells assessed as pro-caspase 3 level at 10 uM incubated for 24 hrs by Western blot analysis (reference value: 1); format: functional
MDA-MB-231 [30] = experiment: Induction of apoptosis in human MDA-MB-231 cells assessed as pro-caspase 8 level at 10 uM incubated for 24 hrs by Western blot analysis (reference value: 1); format: functional
MDA-MB-231 [31] = experiment: Induction of apoptosis in human MDA-MB-231 cells assessed as cleaved pro-caspase 8 level at 10 uM incubated for 24 hrs by Western blot analysis (reference value: 1); format: functional
MDA-MB-231 [32] = experiment: Induction of apoptosis in human MDA-MB-231 cells assessed as pro-caspase 3 level at 10 uM incubated for 24 hrs by Western blot analysis (reference value: 1); format: functional
MCF7 [33] = experiment: Induction of endoplasmic reticulum stress in human MCF7 cells assessed as IRE1-alpha expression at 10 uM incubated for 24 hrs by Western blot analysis (reference value: 1); format: functional
MCF7 [34] = experiment: Induction of endoplasmic reticulum stress in human MCF7 cells assessed as BIP expression at 10 uM incubated for 24 hrs by Western blot analysis (reference value: 1); format: functional
MCF7 [35] = experiment: Induction of endoplasmic reticulum stress in human MCF7 cells assessed as CHOP expression at 10 uM incubated for 24 hrs by Western blot analysis (reference value: 1); format: functional
MDA-MB-231 [36] = experiment: Induction of endoplasmic reticulum stress in human MDA-MB-231 cells assessed as IRE1-alpha expression at 10 uM incubated for 24 hrs by Western blot analysis (reference value: 1); format: functional
MDA-MB-231 [37] = experiment: Induction of endoplasmic reticulum stress in human MDA-MB-231 cells assessed as CHOP expression at 10 uM incubated for 24 hrs by Western blot analysis (reference value: 1); format: functional

SMILES: COC(=O)[C@@]1(C)CC[C@]2(C)CC[C@]3(C)[C@H](C(=O)C=C4[C@@]5(C)C=C(C#N)C(=O)C(C)(C)[C@@H]5CC[C@]43C)[C@@H]2C1
- pIC50 (MCF7 [1]): 5.37
- pIC50 (MDA-MB-231 [2]): 5.22
- pIC50 [3]: ≤ 6.52
- Activity (MCF7 [4]): Active
- Activity (MCF7 [5]): Active
- Activity (MCF7 [6]): Tde
- Activity (MCF7 [7]): Tde
- Activity (MDA-MB-231 [8]): Active
- Activity (MCF7 [9]): inactive
- Activity (MCF7 [10]): Active
- Activity (MCF7 [11]): 0.2%
- Activity (MCF7 [12]): 10.8%
- Activity (MDA-MB-231 [13]): 2.95%
- Activity (MDA-MB-231 [14]): 69.55%
- Activity (MDA-MB-231 [15]): 2.25%
- Activity (MCF7 [16]): Tde
- Activity [17]: 60.2%
- Activity [18]: 24.55%
- Activity [19]: 0.5%
- Activity (MCF7 [20]): inactive
- Activity (MCF7 [21]): Active
- Activity (MDA-MB-231 [22]): Active
- Activity (MDA-MB-231 [23]): Active
- Activity (MCF7 [24]): Active
- Activity (MCF7 [25]): inactive
- fold change (FC) (MDA-MB-231 [26]): 6.3
- fold change (FC) (MCF7 [27]): 1.2
- fold change (FC) (MCF7 [28]): 1.01
- fold change (FC) (MCF7 [29]): 1.7
- fold change (FC) (MDA-MB-231 [30]): 2.1
- fold change (FC) (MDA-MB-231 [31]): 2.4
- fold change (FC) (MDA-MB-231 [32]): 1.3
- fold change (FC) (MCF7 [33]): 0.6
- fold change (FC) (MCF7 [34]): 0.8
- fold change (FC) (MCF7 [35]): 0.3
- fold change (FC) (MDA-MB-231 [36]): 1.1
- fold change (FC) (MDA-MB-231 [37]): 6
